{"source": "patent US20230151101A1", "about": "“METHODS AND COMPOSITIONS TO ENHANCE HUMORAL IMMUNITY TO REDUCE CYTOMEGALOVIRUS INFECTION AND REACTIVATION BY IL-6 INHIBITION” (Fred Hutchinson Cancer Center, priority 2021, published 2023)", "type_in_all_cases": "in vivo, human", "key": {"HCMV [1]": {"system": "HCMV", "assay": "phase I/II clinical trial of tocilizumab added to standard GVHD prophylaxis: HCMV reactivation vs historical cohort", "details": "at risk BMT recipients; compared to non-randomized similarly transplanted historical cohort", "from_the_text": "FIGS. 9A through 9C. IL-6 inhibition with tocilizumab is associated with low rates of significant CMV reactivation relative to historical controls. Human CMV (HCMV) viremia over time after bone marrow transplantation (BMT) in patients from (FIG. 9A) a phase I/II clinical trial of the addition of tocilizumab to standard graft versus host disease (GVHD) prophylaxis (left) or (FIG. 9B) a contemporaneous historical control cohort (right). FIG. 9C. Depiction of CMV reactivation > 600 versus < 600 copies/µL of plasma in the two patient cohorts.\n(§1) Patients. Patients were enrolled in reported phase I/II (ACTRN12612000726853) or phase III (ACTRN12614000266662) clinical trials. The studies were approved by the Royal Brisbane and Womens Hospital institutional human ethics committee and all patients provided signed informed consent.\nHCMV monitoring. CMV viral load was monitored using the COBAS® Amplicor CMV Monitor test (Roche Diagnostics, Basel, Switzerland) as previously described (Tey SK, Kennedy GA, Cromer D, Davenport MP, Walker S, Jones LI, et al. Clinical assessment of anti-viral CD8+ T cell immune monitoring using QuantiFERON-CMV® assay to identify high risk allogeneic hematopoietic stem cell transplant patients with CMV infection complications. PloS one. 2013, 8(10), e74744). […]"}, "CD19+ B cells": {"system": "CD19+ B cells", "assay": "B cell subsets and B cell counts in peripheral blood after clinical BMT", "experimental": "(§2) FIGS. 7A through 7G. […] Patients included for the evaluation of human CMV (HCMV) reactivation (as in FIG. 6) were analyzed for HCMV specific T cells and other immune subsets. A total of 50 PBMC samples at day + 60 after bone marrow transplantation (BMT) were identified based on availability of HCMV tetramers and peptides. FIG. 7A. Frequency of HCMV tetramer positive CD8^+ T cells in patients with or without HCMV reactivation. FIG. 7B. Frequency of cytokine (IFNy^+TNF^+) producing CD8^+ T cells following HCMV peptide stimulation in patients with or without HCMV reactivation. FIG. 7C. Frequency of HCMV tetramer positive CD8^+ T cells in patients receiving tocilizumab (TCZ) (n = 21) or placebo control (Ctrl) (n = 29). FIG. 7D. Frequency of cytokine (IFNv^+TNF^+) producing CD8^+ T cells in patients receiving TCZ or placebo. FIG. 7E. Memory phenotype for CD4^+ T cells in patients receiving TCZ or placebo. FIG. 7F. Memory phenotype for CD8^+ T cells in patients receiving TCZ or placebo. FIG. 7G. Proportions of naive B cells, mature B cells and plasmablasts in a subset of the above cohort (n = 19 for control and 17 for TCZ groups respectively). *P < 0.05.\nFIGS. 12A through 12B. The effects of IL-6 inhibition with tocilizumab (TCZ) on B cell recovery following clinical BMT. FIG. 12A. B cell counts in peripheral blood in at-risk patients at day + 30 and + 60 after BMT. FIG. 12B. B cell counts in peripheral blood at day + 60 after bone marrow transplantation (BMT), classified into 4 groups based on the TCZ administration and the presence of acute graft versus host disease (aGVHD).\nFurthermore, there was no difference in the memory phenotypes of CD4^+ and CD8^+ T cells between placebo and TCZ treated patients (FIGS. 7E - 7F). The inventors also analyzed CD19^+ B cells in available samples (n = 19 for Ctrl and n = 17 for TCZ)."}, "HCMV [2]": {"system": "HCMV", "assay": "phase III randomized placebo-controlled trial: HCMV viremia and cumulative incidence of HCMV reactivation after allogenic BMT", "from_the_text": "FIGS. 6A through 6D. IL-6 inhibition with tocilizumab reduces human CMV (HCMV) reactivation in clinical allogenic bone marrow transplantation (BMT) recipients. Participants of a phase 3 clinical trial who were enrolled at Royal Brisbane and Women’s Hospital and were at-risk of HCMV reactivation were included for analysis (n = 85). These patients were either seropositive for HCMV (R^+) or received grafts from seropositive donors (D^+). FIGS. 6A to 6C. Cumulative incidence of any detectable HCMV reactivation after BMT in at-risk patients. Solid lines represent the tocilizumab (TCZ) group and broken lines represent the placebo control group. FIG. 6A. HCMV reactivation in the total cohort (left) or the subset of patients with grade 0 - I acute graft versus host disease (aGVHD) (right). FIG. 6B. HCMV reactivation in all recipients of volunteer unrelated donor (VUD) grafts (left) or the subset of patients with grade 0 - I aGVHD (right). FIG. 6C. HCMV reactivation in all recipients of matched sibling donor (MSD) grafts (left) or those with grade 0 - I aGVHD (right). FIG. 6D. Distribution of HCMV serostatus (D^+R^-, D^+R^+ and D^-R^+) in recipients of MSD or VUD grafts.\n(§3) FIGS. 11A through 11D. IL-6 inhibition with tocilizumab (TCZ) attenuates human CMV (HCMV) viremia after clinical BMT. FIG. 11A. Kinetics of HCMV viremia over time for placebo control versus TCZ groups. FIG. 11B (left). The number of PCR positive events of HCMV viremia plotted in (A) and depicted in the two patient cohorts. FIG. 11B (right). Distribution of HCMV reactivation in the patient cohorts receiving volunteer unrelated donor (VUD) grafts. FIG. 11C. Plasma concentration of MCP-1 at day + 60 after bone marrow transplantation (BMT) in patients was quantified and shown in relation to HCMV reactivation (≥ 600 copies/µL) and TCZ treatment. FIG. 11D. Pair-wise comparison of MCP-1 from day + 30 to + 60 in patients without (left) or with (right) significant CMV reactivation (≥ 600 copies/µL) in the placebo group. *P < 0.05; ****P < 0.0001.\nas §1\nHCMV monitoring. CMV viral load was monitored using the COBAS® Amplicor CMV Monitor test (Roche Diagnostics, Basel, Switzerland) as previously described (Tey SK, Kennedy GA, Cromer D, Davenport MP, Walker S, Jones LI, et al. Clinical assessment of anti-viral CD8+ T cell immune monitoring using QuantiFERON-CMV® assay to identify high risk allogeneic hematopoietic stem cell transplant patients with CMV infection complications. PloS one. 2013, 8(10), e74744). Cumulative incidence of any detectable HCMV viremia is plotted up to day + 100 after BMT and HCMV is censored at day + 100 of BMT or the time of death if this occurred prior to day 100.\nStatistics. Results are presented as median ± interquartile range and the Mann-Whitney U test was used for comparisons. Wilcoxon test is conducted for pair-wise comparisons. Ordinary least-squares method was used in the linear or semi-log regression analysis. A two-sided P value of 0.05 was considered statistically significant. […]"}, "MCP-1": {"system": "MCP-1", "assay": "plasma MCP-1 in phase III BMT patients", "details": "day 60 after BMT", "from_the_text": "as §3\nFlow cytometry. Antibody stained single-cell suspensions were analyzed on an LSR Fortessa™ cytometer in Australia or a FACSymphony™ A3 in Seattle USA (Becton Dickinson) and data are processed using FlowJo version 10 (Tree Star). Cytokines levels in the plasma were determined with the BD Cytometric Bead Array system (BD Biosciences).\nFurthermore, high level HCMV reactivation (≥ 600 copies/ul) was associated with a greater increase in MCP-1 between day + 30 and + 60 than seen in patients with low level reactivation (FIG. 11D). […]"}, "HCMV specific T cells": {"system": "HCMV specific T cells", "assay": "HCMV-specific CD8+ T cells and T cell memory phenotype in PBMC at day +60 after BMT (flow cytometry)", "experimental": "as §2\nNext the effect of IL-6 inhibition was investigated on donor T and B cell responses after BMT. Firstly, HCMV-specific CD8^+ T cells defined by HCMV-tetramer staining or cytokine production (IFNγ and/or TNF) were analyzed following HCMV peptide stimulation in conjunction with markers of T cell memory (CD45RA and CCR7). The inventors identified 50 PBMC samples at day + 60 after BMT based on availability of HCMV tetramers (and/or peptides). […] Within the subset of patients with HCMV reactivation, HCMV tetramer^+ cells were present at a lower frequency in patients with higher HCMV viremia (FIG. 7A right)."}, "HCMV-specific IgG": {"system": "HCMV-specific IgG", "assay": "HCMV-specific IgG titers in plasma at day +30 after BMT (chemiluminescence, Diasorin Liaison XL)", "from_the_text": "FIGS. 8A through 8C. IL-6 inhibition with tocilizumab is associated with the maintenance of human CMV (HCMV)-specific IgG. FIGS. 8A to 8C. Quantification of HCMV-specific IgG titers in plasma at day + 30 after bone marrow transplantation (BMT). FIG. 8A. D^-R^+ and D^+R^+ patients are classified into 3 groups based on HCMV reactivation (reactivation before day + 35, reactivation between day + 35 and + 100, no reactivation by day + 100) and respective HCMV-specific IgG titers are shown. FIG. 8B. HCMV-specific IgG in D^-R^+ and D^+R^+ patients are shown for tocilizumab (TCZ) versus placebo control (Ctrl) groups (left). The analysis for the subset of unrelated transplants is shown right. FIG. 8C. Titers of HCMV-specific IgG in D^+R^- patients are shown for TCZ versus placebo control groups. Dotted lines indicate detection limit of the HCMV-IgG assay (5 -180 U/mL).\nTotal and HCMV-specific IgG. The concentration of total IgG was determined with Enzyme-linked immunosorbent assay (Invitrogen) as per the manufacturer’s protocol. Quantification of HCMV IgG was conducted by Sullivan Nicolaides Pathology Queensland (Bowen Hills, QLD, Australia) using a chemiluminescence method on the Diasorin Liaison® XL platform. This semiquantitative method allows for a detection range of 5 - 180 Unit/mL.\nGiven the lack of effects of IL-6 inhibition on T and B cells, HCMV-specific IgG was quantified after BMT. […]"}}, "data": [{"substance": "tocilizumab", "values": [{"measurement": "rates of significant HCMV reactivation requiring preemptive therapy (> 600 copies/µL)", "setting": "HCMV [1]", "result": "low rates"}, {"measurement": "absolute numbers of B cells in blood", "setting": "CD19+ B cells; day +30 or +60, presence or absence of TCZ", "result": "not different"}, {"measurement": "B cell suppression in patients with grade II-IV acute GVHD", "setting": "CD19+ B cells; day +60", "result": "did appear to mitigate"}, {"measurement": "frequencies of IgD+CD27- naïve B cells, IgD-CD27+ mature B cells or CD38hi plasmablasts", "setting": "CD19+ B cells; n = 19 Ctrl, n = 17 TCZ", "result": "did not impact"}, {"measurement": "benefit from treatment by serostatus", "setting": "HCMV [2]; HCMV seropositive patients receiving seronegative grafts (D-R+)", "result": "maximum benefit"}, {"measurement": "HCMV viremia", "setting": "HCMV [2]; TCZ vs placebo, at-risk patients (n = 85)", "result": "a trend towards lower HCMV viremia"}, {"measurement": "HCMV reactivation, TCZ versus placebo", "setting": "HCMV [2]; recipients of matched sibling donor grafts", "result": "no difference"}, {"measurement": "protection on HCMV reactivation", "setting": "HCMV [2]; recipients of volunteer unrelated donor (VUD) grafts, independent of acute GVHD", "result": "most profound"}, {"measurement": "cumulative incidence of HCMV reactivation", "setting": "HCMV [2]; total cohort, TCZ vs placebo, independent of acute GVHD", "result": "a trend towards lower cumulative incidence"}, {"measurement": "increase of plasma MCP-1 with HCMV reactivation (≥ 600 copies/ul)", "setting": "MCP-1", "result": "not observed"}, {"measurement": "frequency of cytokine-producing CD8+ T cells", "setting": "HCMV specific T cells; day +60 PBMC, HCMV peptide stimulation, TCZ vs placebo", "result": "did not have any significant effect"}, {"measurement": "frequency of HCMV-tetramer+CD8+ T cells", "setting": "HCMV specific T cells; day +60 PBMC, TCZ (n = 21) vs placebo (n = 29)", "result": "did not have any significant effect"}, {"measurement": "memory phenotypes of CD4+ and CD8+ T cells", "setting": "HCMV specific T cells; placebo vs TCZ treated patients", "result": "no difference"}, {"measurement": "effect on HCMV-IgG titers by graft type", "setting": "HCMV-specific IgG; day +30 plasma, VUD subset", "result": "predominantly observed in recipients of VUD grafts"}, {"measurement": "HCMV-IgG in day +30 plasma", "setting": "HCMV-specific IgG; seropositive recipients (D-R+ and D+R+), TCZ vs placebo", "result": "higher"}]}]}
